Results published in patent US20260184708A1, “PYRIDAZINONES AND METHODS OF USE THEREOF” (GFB (ABC), LLC, priority 2017, published 2026).

Target: T1, TRPC4 (Homo sapiens, UniProt Q9UBN4)
T1 construct: expressed in transfected cells; host or cells: HEK-TREx (HekTrex-293), cell line ICLN-1694, tetracycline-induced
T1 sequence (Q9UBN4 1-982 isoform Q9UBN4-5): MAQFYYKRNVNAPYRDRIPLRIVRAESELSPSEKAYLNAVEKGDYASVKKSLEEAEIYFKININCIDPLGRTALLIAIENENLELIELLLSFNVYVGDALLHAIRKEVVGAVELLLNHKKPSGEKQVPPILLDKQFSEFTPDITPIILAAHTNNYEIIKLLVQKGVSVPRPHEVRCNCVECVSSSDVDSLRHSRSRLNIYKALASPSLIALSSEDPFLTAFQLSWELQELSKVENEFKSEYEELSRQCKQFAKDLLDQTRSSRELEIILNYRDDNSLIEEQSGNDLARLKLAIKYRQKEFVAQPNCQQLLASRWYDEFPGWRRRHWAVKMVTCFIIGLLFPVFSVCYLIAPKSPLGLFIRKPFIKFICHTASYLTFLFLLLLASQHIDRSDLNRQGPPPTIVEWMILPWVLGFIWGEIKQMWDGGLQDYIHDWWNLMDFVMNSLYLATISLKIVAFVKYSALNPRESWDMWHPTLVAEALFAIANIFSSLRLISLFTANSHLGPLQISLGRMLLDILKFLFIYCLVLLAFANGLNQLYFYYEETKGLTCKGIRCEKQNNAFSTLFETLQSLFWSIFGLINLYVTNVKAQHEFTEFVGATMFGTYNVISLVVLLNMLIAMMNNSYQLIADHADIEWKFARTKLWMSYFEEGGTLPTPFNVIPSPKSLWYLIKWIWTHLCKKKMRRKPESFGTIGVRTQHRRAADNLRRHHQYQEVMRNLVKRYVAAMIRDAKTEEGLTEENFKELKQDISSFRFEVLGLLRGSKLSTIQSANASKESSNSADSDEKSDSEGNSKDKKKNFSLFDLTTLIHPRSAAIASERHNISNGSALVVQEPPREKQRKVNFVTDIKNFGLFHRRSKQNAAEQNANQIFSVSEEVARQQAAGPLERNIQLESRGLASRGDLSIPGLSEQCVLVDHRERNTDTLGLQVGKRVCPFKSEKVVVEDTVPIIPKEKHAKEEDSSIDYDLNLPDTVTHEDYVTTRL
Assay: TRPC4 FLIPR Assay (HEK-TREx hTRPC4, Englerin A stimulation)
Assay type: cell-based
Conditions: Table 8; HEK-TREx hTRPC4; read-out: TRPC4 FLIPR IC50
Method: FLIPR Assay Buffer (Earls Balanced Salt Solution (EBSS)) was prepared as follows:
10-point dose response curves were generated using the Echo-550 acoustic dispenser. Compound source plates were made by serially diluting compound stocks to create 10 mM, 1 mM, and 0.1 mM solutions in DMSO into Echo certified LDV plates. The Echo then serially spotted 100% DMSO stock solutions into source dose response plates to generate a 4-fold dilution scheme. 100% DMSO was added to the spotted dose response plates to bring the final volume to 5 μl. […] of the dose response stock plate was then spotted into pre-incubation and stimulation assay plates. […] of pre-incubation buffer and 100 μl of stimulation buffer was then added to the plates resulting in a final assay test concentration range of 30 μM to 0.0001 μM with a final DMSO concentration of 0.3%.
Experimental Methods: Cells expressing TRPC4 were plated onto 384 well, black pdl-coated microplates and maintained in TRPC4 growth media the day prior to use for experiments. TRPC4 expression was induced by the application of 1 μg/ml tetracycline at the time of plating. […] Cells were incubated at room temperature, protected from light, for 60-90 minutes. After the incubation period, the dye was removed and replaced with 10 μl of EBSS. Cell, pre-incubation and stimulation plates were loaded onto the FLIPR-II and the assay was initiated. The FLIPR measured a 10 second baseline and then added 10 μl of 2× compounds (or controls). Changes in fluorescence were monitored for an additional 5 minutes. After a 5 minute pre-incubation, 20 μl of 2× Englerin A (with 1× compound or controls) was added to the cell plate. The final Engerlin A stimulation concentration in the assay is 100 nM. After the Englerin A addition, changes in fluorescence were monitored for an additional 5 minutes.
Test Agent Effect: Test agent modulation of TRPC4 calcium response was determined as follows. After the Englerin A, fluorescence was monitored for a 5 minute period. The maximum relative fluorescence response (minus the control response of […] of the control inhibitor) was captured and exported from the FLIPR. Test agent effect was calculated as % inhibition using the following formula: % inhibition=((RFU TEST AGENT−Plate Average RFU REF INHIB)/(Plate Average RFU CONTROL−Plate Average RFU REF INHIB))×100

IC50, 0.01 to 1000 nM:
NC(=O)c1nc2c(n1Cc1ccccc1C(F)(F)F)CCN(c1cn[nH]c(=O)c1Cl)C2 [drawing 997]
O=c1[nH]ncc(N2CCc3c(nnn3Cc3ccc(F)cc3CC(F)(F)F)C2)c1Cl [drawing 994]
O=c1[nH]ncc(N2CCc3c(ncn3Cc3ccccc3C(F)(F)F)C2)c1Br [drawing 950]
O=c1[nH]ncc(N2CCc3c(Cc4ccc(F)cc4C(F)(F)F)n[nH]c3C2)c1Cl [drawing 1005]
O=c1[nH]ncc(N2CCc3c(cnn3Cc3ccc(F)cc3C(F)(F)F)C2)c1Cl [drawing 951]
Cc1ccccc1CN1CCN(c2cn[nH]c(=O)c2Cl)CC1=O [drawing 1008]
O=c1[nH]ncc(N2CCc3c(ncn3Cc3ccccc3)C2)c1Cl [drawing 939]
CNC(=O)c1nn(Cc2ccc(F)cc2C(F)F)c2c1CN(c1cn[nH]c(=O)c1Cl)CC2 [drawing 985]
CC(c1ccc(F)cc1C(F)F)n1nc(C(N)=O)c2c1CCN(c1cn[nH]c(=O)c1Cl)C2 (centres unmarked) [drawing 983]
O=c1[nH]ncc(N2CCc3c(ncn3Cc3ccc(F)cc3C(F)(F)F)C2)c1Cl [drawing 942]

IC50, 5000 to 10000 nM:
Cc1cc(F)ccc1CN1CCN(c2cn[nH]c(=O)c2Cl)CC1 [drawing 1012]

IC50, 1000 to 5000 nM:
Cc1cc(Cl)ccc1CN1CCN(c2cn[nH]c(=O)c2Cl)CC1=O [drawing 1018]
COCc1ncccc1Cn1cnc2c1CCN(c1cn[nH]c(=O)c1Cl)C2 [drawing 966]

Target: T2, TRPC5 (Homo sapiens, UniProt Q9UL62)
T2 construct: expressed in transfected cells; host or cells: HEK 293
T2 sequence (Q9UL62 1-973): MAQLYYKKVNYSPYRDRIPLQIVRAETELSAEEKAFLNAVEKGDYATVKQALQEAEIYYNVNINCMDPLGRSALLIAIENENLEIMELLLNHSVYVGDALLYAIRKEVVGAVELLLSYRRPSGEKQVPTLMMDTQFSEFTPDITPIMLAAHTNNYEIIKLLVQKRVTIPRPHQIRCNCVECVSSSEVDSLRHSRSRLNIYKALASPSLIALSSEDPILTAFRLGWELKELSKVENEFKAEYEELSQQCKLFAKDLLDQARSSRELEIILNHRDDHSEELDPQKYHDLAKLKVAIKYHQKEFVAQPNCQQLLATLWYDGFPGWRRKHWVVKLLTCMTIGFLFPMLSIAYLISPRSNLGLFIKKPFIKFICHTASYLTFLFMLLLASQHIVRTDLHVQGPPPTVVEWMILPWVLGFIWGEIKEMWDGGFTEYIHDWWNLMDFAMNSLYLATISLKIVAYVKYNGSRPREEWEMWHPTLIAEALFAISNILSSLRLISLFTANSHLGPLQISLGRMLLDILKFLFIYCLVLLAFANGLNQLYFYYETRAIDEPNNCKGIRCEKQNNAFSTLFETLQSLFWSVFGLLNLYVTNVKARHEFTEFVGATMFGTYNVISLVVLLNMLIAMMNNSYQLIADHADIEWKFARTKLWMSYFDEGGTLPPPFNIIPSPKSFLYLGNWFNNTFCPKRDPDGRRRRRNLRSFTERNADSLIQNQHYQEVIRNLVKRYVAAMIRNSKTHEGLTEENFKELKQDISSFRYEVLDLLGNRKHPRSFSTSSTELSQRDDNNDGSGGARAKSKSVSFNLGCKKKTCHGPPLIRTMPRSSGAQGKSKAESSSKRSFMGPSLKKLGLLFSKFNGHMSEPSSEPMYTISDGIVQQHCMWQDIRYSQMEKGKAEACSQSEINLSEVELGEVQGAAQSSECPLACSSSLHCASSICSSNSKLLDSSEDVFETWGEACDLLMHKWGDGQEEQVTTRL
Assay: TRPC5 fluorescence assay, membrane potential dye, flexstation (FLEX)
Assay type: cell-based
Conditions: Table 6; HEK293 cells overexpressing TRPC5
Method: HEK 293 cells expressing human TRPC5 cells were trypsinised, counted and seeded in black, clear-bottomed 96-well plates at a density of 50,000 cells per well and incubated overnight. Next day, the cells were loaded with membrane potential dye. Dye solution was made up according to the manufacturer's instructions in HEPES buffered Hank's balanced salt solution (HBSS). Dye solution (10 μL) was added to the wells and incubated at 37° C. for 1 hour. The test compounds and standard inhibitors were added to the wells and incubated at room temperature for 10 minutes. The plates were then placed in the flexstation and fluorescence monitored every 1.52 seconds. After 20 seconds, 10 μL of the appropriate standard agonist was added and the fluorescence monitored for 2 minutes at ex/emm: 530 nm/565 nm.

IC50, 1000 to 5000 nM:
N#Cc1c(N2CCc3ncn(Cc4cncc(F)c4)c3C2)cn[nH]c1=O
Cc1ncccc1Cn1cnc2c1CN(c1cn[nH]c(=O)c1Cl)CC2
CCOc1cccc(Cn2cnc3c2CCN(c2cn[nH]c(=O)c2Cl)C3)n1
O=c1[nH]ncc(N2CCc3ncn(-c4ccccc4C(F)(F)F)c3C2)c1Cl [drawing 869]
O=c1[nH]ncc(N2CCc3nn(-c4ccccc4OC(F)(F)F)cc3C2)c1Cl
O=c1[nH]ncc(N2CCc3c(cnn3Cc3cccnc3CC(F)(F)F)C2)c1Cl
N#Cc1ccccc1-n1cnc2c1CN(c1cn[nH]c(=O)c1C#N)CC2 [drawing 898]
CC[C@H](c1cccnc1)n1nnc2c1CCN(c1cn[nH]c(=O)c1Cl)C2
O=c1[nH]ncc(N2CCc3c(cnn3-c3ccccc3C(F)(F)F)C2)c1Cl

IC50, 5000 to 10000 nM:
CCc1cccnc1Cn1cnc2c1CN(c1cn[nH]c(=O)c1Cl)CC2
CC(c1ccccc1C(F)(F)F)n1nnc2c1CCN(c1cn[nH]c(=O)c1C#N)C2 (centres unmarked)

IC50, 10000 to 500000 nM:
O=c1[nH]ncc(N2CCc3ncn(Cc4cnccc4C(F)(F)F)c3C2)c1Cl
O=c1[nH]ncc(N2CCc3c(ncn3Cc3ccc(C(F)(F)F)nc3)C2)c1Cl
O=c1[nH]ncc(N2CCc3c(nnn3C3CCCCC3)C2)c1Cl
Cc1nc2c(n1Cc1ccccc1C(F)(F)F)CCN(c1c(Cl)cn[nH]c1=O)C2

IC50, 0.01 to 1000 nM:
O=c1[nH]ncc(N2CCc3nn(Cc4ccc(F)cc4C(F)(F)F)cc3C2)c1Cl
CCc1ncccc1Cn1nnc2c1CCN(c1cn[nH]c(=O)c1Cl)C2
O=c1[nH]ncc(N2CCc3c(ncn3Cc3cccnc3OC(F)(F)F)C2)c1Cl
Cc1nc2c(n1Cc1ccccc1C(F)(F)F)CCN(c1cn[nH]c(=O)c1Cl)C2
C[C@@H](c1ccccc1C(F)(F)F)n1nnc2c1CCN(c1cn[nH]c(=O)c1Cl)C2 [drawing 908]
O=c1[nH]ncc(N2CCc3c(nnn3Cc3cccnc3CC(F)(F)F)C2)c1Cl
N#Cc1c(N2CCc3ncn(Cc4ccccc4C(F)F)c3C2)cn[nH]c1=O
O=c1[nH]ncc(N2CCc3c(nnn3Cc3ccc(F)cc3C(F)F)C2)c1Cl
Cc1cccc(C)c1Cn1cnc2c1CCN(c1cn[nH]c(=O)c1Cl)C2
O=c1[nH]ncc(N2CCc3c(cnn3Cc3ccc(F)cc3C(F)(F)F)C2)c1Cl [drawing 907]
O=c1[nH]ncc(N2CCc3c(nnn3Cc3ccccc3OC(F)F)C2)c1Cl
C[C@H](c1ccccc1C(F)(F)F)n1nnc2c1CCN(c1cn[nH]c(=O)c1C#N)C2
N#Cc1c(N2CCc3c(ncn3Cc3cncc(F)c3)C2)cn[nH]c1=O
C[C@H](c1ccccc1C(F)(F)F)n1nnc2c1CCN(c1cn[nH]c(=O)c1Cl)C2

Target: T2, TRPC5
Assay: TRPC5 automated patch clamp assay (Qpatch), current block after rosiglitazone stimulation
Assay type: cell-based
Conditions: Table 6; HEK293 cells overexpressing TRPC5; read-out: TRPC5-QPatch IC50
How it was run: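 HEK 293 cells expressing human TRPC5, whole-cell QPatch recording; 1 μM buffered free internal Ca2+, external pH 7.4. Ramps −100 to +100 mV over 300 ms every 10 s from −60 mV holding; channel activated by Rosiglitazone (30 uM) after ≥60 s control. IC50 from Hill fit.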

IC50, 10000 to 500000 nM:
O=c1[nH]ncc(N2CCc3c(ncn3Cc3ccc(C(F)(F)F)nc3)C2)c1Cl

IC50, 1000 to 5000 nM:
CCc1ncccc1Cn1nnc2c1CCN(c1cn[nH]c(=O)c1Cl)C2

IC50, 5000 to 10000 nM:
O=c1[nH]ncc(N2CCc3c(nnn3C3CCCCC3)C2)c1Cl

IC50, 0.01 to 1000 nM:
O=c1[nH]ncc(N2CCc3c(ncn3Cc3cccnc3OC(F)(F)F)C2)c1Cl
Cc1nc2c(n1Cc1ccccc1C(F)(F)F)CCN(c1cn[nH]c(=O)c1Cl)C2
